# US20160060260A1, “BROMODOMAIN INHIBITORS FOR TREATING DISEASE” (Board of Regents, The University of Texas System, priority 2014, published 2016)
# Target: T1, Recombinant human His-tagged Trim24-PHD-bromodomain (Homo sapiens, UniProt O15164)
# T1 construct: Recombinant human His-tagged Trim24-PHD-bromodomain (produced in-house); made in house
# T1 sequence (O15164 824-1006 limits assumed): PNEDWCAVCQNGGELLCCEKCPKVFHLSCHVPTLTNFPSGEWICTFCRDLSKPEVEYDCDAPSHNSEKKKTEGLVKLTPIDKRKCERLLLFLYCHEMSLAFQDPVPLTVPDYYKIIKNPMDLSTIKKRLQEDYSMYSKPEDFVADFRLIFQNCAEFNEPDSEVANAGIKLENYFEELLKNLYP
# Experiment: Trim24 AlphaScreen Assay
# Assay type: binding
# Conditions: 5 nM Trim24 protein, 15 nM biotinylated H3K23ac (1-33aa) peptide
# Procedure, shortened: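 AlphaScreen read-out after 2 h with streptavidin donor and Ni-chelate acceptor beads at 10 ug/mL each, following 1 h room-temperature incubation of compound, His-tagged PHD-bromodomain protein and biotin-H3K23ac (1-33aa) peptide in Hepes pH 7.5 buffer with NaCl and Triton X-100. Signals normalised between no-compound and no-protein wells; IC50 from four-parameter logistic curves.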
row,SMILES,IC50
1,"Cc1cc(OCC(C)C)cc(Oc2cc3c(cc2NS(=O)(=O)c2cn(C)cn2)n(C)c(=O)n3C)c1 [Example 222, N-(6-(3-isobutoxy-5-methylphenoxy)-1,3-dimethyl-2-oxo-2,3-dihydro-1H-benzo[d]imidazol-5-yl)-1-methyl-1H-imidazole-4-sulfonamide]",10 to 100 nM
2,"CC(C)COc1cc(Cl)cc(Oc2cc3c(cc2NS(=O)(=O)c2cn(C)cn2)n(C)c(=O)n3C)c1 [Example 223, N-(6-(3-chloro-5-isobutoxyphenoxy)-1,3-dimethyl-2-oxo-2,3-dihydro-1H-benzo[d]imidazol-5-yl)-1-methyl-1H-imidazole-4-sulfonamide]",10 to 100 nM
3,"CC(C)COc1cc(F)cc(Oc2cc3c(cc2NS(=O)(=O)c2cn(C)cn2)n(C)c(=O)n3C)c1 [Example 224, N-(6-(3-fluoro-5-isobutoxyphenoxy)-1,3-dimethyl-2-oxo-2,3-dihydro-1H-benzo[d]imidazol-5-yl)-1-methyl-1H-imidazole-4-sulfonamide]",10 to 100 nM
4,"CCOc1cc(OCC(C)C)cc(Oc2cc3c(cc2NS(=O)(=O)c2cn(C)cn2)n(C)c(=O)n3C)c1 [Example 225, N-(6-(3-ethoxy-5-isobutoxyphenoxy)-1,3-dimethyl-2-oxo-2,3-dihydro-1H-benzo[d]imidazol-5-yl)-1-methyl-1H-imidazole-4-sulfonamide]",10 to 100 nM
5,"CCc1cc(OCC(C)C)cc(Oc2cc3c(cc2NS(=O)(=O)c2cn(C)cn2)n(C)c(=O)n3C)c1 [Example 226, N-(6-(3-ethyl-5-isobutoxyphenoxy)-1,3-dimethyl-2-oxo-2,3-dihydro-1H-benzo[d]imidazol-5-yl)-1-methyl-1H-imidazole-4-sulfonamide]",10 to 100 nM
6,"Cn1cnc(S(=O)(=O)Nc2cc3c(cc2Oc2cccc(OCCCC(=O)O)c2)n(C)c(=O)n3C)c1 [Example 227, 4-(3-(1,3-dimethyl-6-(1-methyl-1H-imidazole-4-sulfonamido)-2-oxo-2,3-dihydro-1H-benzo[d]imidazol-5-yloxy)phenoxy)butanoic acid]",> 1000 nM
7,Cn1cnc(S(=O)(=O)Nc2cc3c(cc2Oc2cccc(OCCCCC(=O)O)c2)n(C)c(=O)n3C)c1 [Example 228],100 to 1000 nM
8,"Cc1nc(S(=O)(=O)Nc2cc3c(cc2Oc2cccc(OCC4CCNCC4)c2)n(C)c(=O)n3C)cn1C [Example 229, N-(1,3-dimethyl-2-oxo-6-(3-(piperidin-4-ylmethoxy)phenoxy)-2,3-dihydro-1H-benzo[d]imidazol-5-yl)-1,2-dimethyl-1H-imidazole-4-sulfonamide]",100 to 1000 nM
9,"Cn1cnc(S(=O)(=O)Nc2cc3c(cc2Oc2cccc(OCC4(C)CO4)c2)n(C)c(=O)n3C)c1 (stereo not drawn) [Example 236, N-(1,3-dimethyl-6-(3-((2-methyloxiran-2-yl)methoxy)phenoxy)-2-oxo-2,3-dihydro-1H-benzo[d]imidazol-5-yl)-1-methyl-1H-imidazole-4-sulfonamide]",100 to 1000 nM
10,"CC(COC(=O)CNC(=O)OC(C)(C)C)COc1cccc(Oc2cc3c(cc2NS(=O)(=O)c2cn(C)cn2)n(C)c(=O)n3C)c1 (stereo not drawn) [Example 239, 3-(3-{[1,3-dimethyl-6-(1-methyl-1H-imidazole-4-sulfonamido)-2-oxo-2,3-dihydro-1H-1,3-benzodiazol-5-yl]oxy}phenoxy)-2-methylpropyl 2-{[(tert-butoxy)carbonyl]amino}acetate]",100 to 1000 nM
11,"COc1cc(S(=O)(=O)Nc2cc3c(cc2Oc2cccc(OCC4CC4)c2)n(C)c(=O)n3C)ccc1O [Example 241, N-(6-(3-(cyclopropylmethoxy)phenoxy)-1,3-dimethyl-2-oxo-2,3-dihydro-1H-benzo[d]imidazol-5-yl)-4-hydroxy-3-methoxybenzenesulfonamide]",10 to 100 nM
12,"CCCOc1cc(OCCCCCCNC(C)=O)cc(Oc2cc3c(cc2NS(=O)(=O)c2cn(C)cn2)n(C)c(=O)n3C)c1 [Example 242, N-(6-(3-((1,3-dimethyl-6-(1-methyl-1H-imidazole-4-sulfonamido)-2-oxo-2,3-dihydro-1H-benzo[d]imidazol-5-yl)oxy)-5-propoxyphenoxy)hexyl)acetamide]",10 to 100 nM
13,"CCCOc1cccc(Oc2cc3c(cc2NS(=O)(=O)c2cccc(OC/C=C/CCCN)c2)n(C)c(=O)n3C)c1 [Example 243, (E)-3-((6-aminohex-2-en-1-yl)oxy)-N-(1,3-dimethyl-2-oxo-6-(3-propoxyphenoxy)-2,3-dihydro-1H-benzo[d]imidazol-5-yl)benzenesulfonamide 2,2,2-trifluoroacetate]",10 to 100 nM
14,"C=CCN(c1cc2c(cc1Oc1cccc(OCCC)c1)n(C)c(=O)n2C)S(=O)(=O)c1cn(CC=C)cn1 [Example 244, N,1-diallyl-N-(1,3-dimethyl-2-oxo-6-(3-propoxyphenoxy)-2,3-dihydro-1H-benzo[d]imidazol-5-yl)-1H-imidazole-4-sulfonamide]",100 to 1000 nM
15,"CCCOc1cc(OCCCCCCN)cc(Oc2cc3c(cc2N(C)S(=O)(=O)c2ccc(OC)c(OC)c2)n(C)c(=O)n3C)c1 [Example 245, N-(6-(3-((6-aminohexyl)oxy)-5-propoxyphenoxy)-1,3-dimethyl-2-oxo-2,3-dihydro-1H-benzo[d]imidazol-5-yl)-3,4-dimethoxy-N-methylbenzenesulfonamide]",100 to 1000 nM
16,"CCCOc1cc(OCCCCN2CCOCC2)cc(Oc2cc3c(cc2NS(=O)(=O)c2ccc(OC)c(OC)c2)n(C)c(=O)n3C)c1 [Example 246, N-(1,3-dimethyl-6-(3-(4-morpholinobutoxy)-5-propoxyphenoxy)-2-oxo-2,3-dihydro-1H-benzo[d]imidazol-5-yl)-3,4-dimethoxybenzenesulfonamide 2,2,2-trifluoroacetate]",10 to 100 nM
17,"CCCOc1cc(OCCCCN2CCC(O)C2)cc(Oc2cc3c(cc2NS(=O)(=O)c2ccc(OC)c(OC)c2)n(C)c(=O)n3C)c1 (stereo not drawn) [Example 247, N-(6-{3-[4-(3-hydroxypyrrolidin-1-yl)butoxy]-5-propoxyphenoxy}-1,3-dimethyl-2-oxo-2,3-dihydro-1H-1,3-benzodiazol-5-yl)-3,4-dimethoxybenzene-1-sulfonamide]",10 to 100 nM
18,"CCCOc1cc(OCCCCN2CC(O)C2)cc(Oc2cc3c(cc2NS(=O)(=O)c2ccc(OC)c(OC)c2)n(C)c(=O)n3C)c1 [Example 248, N-(6-{3-[4-(3-hydroxyazetidin-1-yl)butoxy]-5-propoxyphenoxy}-1,3-dimethyl-2-oxo-2,3-dihydro-1H-1,3-benzodiazol-5-yl)-3,4-dimethoxybenzene-1-sulfonamide]",10 to 100 nM

# Now from value to compound:
row,IC50,SMILES
1,100 to 1000 nM,"CC(CO)COc1cccc(Oc2cc3c(cc2NS(=O)(=O)c2cn(C)cn2)n(C)c(=O)n3C)c1 (stereo not drawn) [Example 230, N-(6-(3-(3-hydroxy-2-methylpropoxy)phenoxy)-1,3-dimethyl-2-oxo-2,3-dihydro-1H-benzo[d]imidazol-5-yl)-1-methyl-1H-imidazole-4-sulfonamide]"
2,100 to 1000 nM,"Cn1cnc(S(=O)(=O)Nc2cc3c(cc2Oc2cccc(OCC(C)(O)CO)c2)n(C)c(=O)n3C)c1 (stereo not drawn) [Example 231, N-{6-[3-(2,3-dihydroxy-2-methylpropoxy)phenoxy]-1,3-dimethyl-2-oxo-2,3-dihydro-1H-1,3-benzodiazol-5-yl}-1-methyl-1H-imidazole-4-sulfonamide]"
3,100 to 1000 nM,"COC(C)(CO)COc1cccc(Oc2cc3c(cc2NS(=O)(=O)c2cn(C)cn2)n(C)c(=O)n3C)c1 (stereo not drawn) [Example 232, N-{6-[3-(3-hydroxy-2-methoxy-2-methylpropoxy)phenoxy]-1,3-dimethyl-2-oxo-2,3-dihydro-1H-1,3-benzodiazol-5-yl}-1-methyl-1H-imidazole-4-sulfonamide]"
4,100 to 1000 nM,"COCC(C)(O)COc1cccc(Oc2cc3c(cc2NS(=O)(=O)c2cn(C)cn2)n(C)c(=O)n3C)c1 (stereo not drawn) [Example 233, N-{6-[3-(2-hydroxy-3-methoxy-2-methylpropoxy)phenoxy]-1,3-dimethyl-2-oxo-2,3-dihydro-1H-1,3-benzodiazol-5-yl}-1-methyl-1H-imidazole-4-sulfonamide]"
5,> 1000 nM,"Cn1cnc(S(=O)(=O)Nc2cc3c(cc2Oc2cccc(OCC(C)(O)CN)c2)n(C)c(=O)n3C)c1 (stereo not drawn) [Example 234, N-{6-[3-(3-amino-2-hydroxy-2-methylpropoxy)phenoxy]-1,3-dimethyl-2-oxo-2,3-dihydro-1H-1,3-benzodiazol-5-yl}-1-methyl-1H-imidazole-4-sulfonamide]"
6,> 1000 nM,"CNCC(C)(O)COc1cccc(Oc2cc3c(cc2NS(=O)(=O)c2cn(C)cn2)n(C)c(=O)n3C)c1 (stereo not drawn) [Example 235, N-(6-{3-[2-hydroxy-2-methyl-3-(methylamino)propoxy]phenoxy}-1,3-dimethyl-2-oxo-2,3-dihydro-1H-1,3-benzodiazol-5-yl)-1-methyl-1H-imidazole-4-sulfonamide]"
7,100 to 1000 nM,"Cn1cnc(S(=O)(=O)Nc2cc3c(cc2Oc2cccc(OCC(C)(O)CNCCN)c2)n(C)c(=O)n3C)c1 (stereo not drawn) [Example 237, N-[6-(3-{3-[(2-aminoethyl)amino]-2-hydroxy-2-methylpropoxy}phenoxy)-1,3-dimethyl-2-oxo-2,3-dihydro-1H-1,3-benzodiazol-5-yl]-1-methyl-1H-imidazole-4-sulfonamide]"
8,100 to 1000 nM,"Cn1cnc(S(=O)(=O)Nc2cc3c(cc2Oc2cccc(OCC(C)(C)O)c2)n(C)c(=O)n3C)c1 [Example 238, N-{6-[3-(2-hydroxy-2-methylpropoxy)phenoxy]-1,3-dimethyl-2-oxo-2,3-dihydro-1H-1,3-benzodiazol-5-yl}-1-methyl-1H-imidazole-4-sulfonamide]"
9,100 to 1000 nM,"Cn1cnc(S(=O)(=O)Nc2cc3c(cc2Oc2cccc(OCCCO)c2)n(C)c(=O)n3C)c1 [Example 240, N-(6-(3-(3-hydroxypropoxy)phenoxy)-1,3-dimethyl-2-oxo-2,3-dihydro-1H-benzo[d]imidazol-5-yl)-1-methyl-1H-imidazole-4-sulfonamide]"
